Test results published in patent US20240279218A1 (Hoffmann-La Roche Inc., priority 2016, published 2024).
Where two headings read alike, the source gives them in different places.

Key:
h-GABA-A α5β3γ2 [1] = target: T1, h-GABA-A α5β3γ2 (Homo sapiens (Human), UniProt P18507+P31644); experiment: Two-electrode voltage clamp electrophysiology in Xenopus oocytes expressing GABAA receptors, modulation of GABA EC20 current; format: cell-based
Outline: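 Values are % modulation of an EC20 GABA response, derived point by point from the ratio of compound-exposed versus control current traces (extremum taken, 100×(fold−1)). Recordings used oocytes injected with human α5, β3, γ2 mRNA, clamped at −80 mV at room temperature, at least 3 oocytes each.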

h-GABA-A α5β3γ2 [2] = target: T1, h-GABA-A α5β3γ2; experiment: [3H]flumazenil competition binding assay, membranes of HEK293 cells expressing human GABAA receptors
Outline: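 Membranes were prepared from HEK293 cells with transient human α5β3γ2 expression and assayed in Krebs-tris, pH 7.5. Bound radioactivity measured on filters by liquid scintillation.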

[3] = % modulation of GABA EC20 = 100*(Fold increase−1), Xenopus oocytes
[4] = Xenopus oocytes, GABA EC20, test compound at approx. 30 fold its Ki
[5] = displacement of [3H]flumazenil 0.5 nM, HEK293 cells expressing human receptors, mean of two determinations, read-out: Ki h-GABA-A α5β3γ2
[6] = reference compounds, % modulation of GABA EC20
[7] = reference compounds, GABAA α5β3γ2 overexpressing oocytes, GABA EC20
[8] = reference compounds, GABAA receptor α5β3γ2, read-out: Ki α5-human

SMILES | Efficacy (GABA) % (h-GABA-A α5β3γ2 [1]; [3]) [%] | Fold increase h-GABA-A α5β3γ2 oocyte (h-GABA-A α5β3γ2 [1]; [4]) | Ki (h-GABA-A α5β3γ2 [2]; [5]) [nM] | Efficacy (GABA) % (h-GABA-A α5β3γ2 [1]; [6]) | Fold increase h-GABA-A α5β3γ2 oocyte (h-GABA-A α5β3γ2 [1]; [7]) | Ki (h-GABA-A α5β3γ2 [2]; [8]) [nM]
Cc1ccc(-c2noc(C)c2COc2ccc(C(=O)NCC(F)(F)F)nn2)cn1 [Example 40, 6-((5-methyl-3-(6-methylpyridin-3-yl)isoxazol-4-yl)methoxy)-N-(2,2,2-trifluoroethyl)pyridazine-3-carboxamide] | 91 | 1.91 | 10.6 | – | – | –
Cc1ccc(-c2noc(C)c2COc2ccc(C(=O)NC3CC4(COC4)C3)nn2)cn1 [Example 100, 6-((5-methyl-3-(6-methylpyridin-3-yl)isoxazol-4-yl)methoxy)-N-(2-oxaspiro[3.3]heptan-6-yl)pyridazine-3-carboxamide] | 70 | 1.7 | 8.5 | – | – | –
Cc1onc(-c2ccc(Cl)cn2)c1COc1ccc(C(=O)NC2CCOCC2)nn1 [RE-B, 6-((3-(5-chloro-2-pyridyl)-5-methyl-isoxazol-4-yl)methoxy)-N-tetrahydropyran-4-yl-pyridazine-3-carboxamide, reference compound] | – | – | – | +3% | 1.03 | 0.4
Cc1ccc(-c2noc(C)c2COc2ccc(C(=O)N[C@H]3CC4CCC3O4)nn2)cn1 (stereo partly drawn) [Example 186, N-((2S)-7-oxabicyclo[2.2.1]heptan-2-yl)-6-((5-methyl-3-(6-methylpyridin-3-yl)isoxazol-4-yl)methoxy)pyridazine-3-carboxamide] | 72 | 1.72 | 16.6 | – | – | –
Cc1ncc(-c2noc(C)c2COc2ccc(C(=O)NC3CCOCC3)cn2)cc1F [Example 143, 6-((3-(5-fluoro-6-methyl-3-pyridyl)-5-methyl-isoxazol-4-yl)methoxy)-N-tetrahydropyran-4-yl-pyridine-3-carboxamide] | 20 | 1.2 | 14.5 | – | – | –
Cc1ccc(-c2noc(C)c2COc2cc3c(cn2)C(=O)N(C2CCOCC2)C3)cn1 [Example 22, 6-((5-methyl-3-(6-methylpyridin-3-yl)isoxazol-4-yl)methoxy)-2-(tetrahydro-2H-pyran-4-yl)-1H-pyrrolo[3,4-c]pyridin-3(2H)-one] | 44 | 1.44 | 10.8 | – | – | –
Cc1ccc(-c2noc(C)c2COc2ccc(C(=O)NC3CCCC(O)C3)nn2)cn1 (stereo not drawn) [Example 156, N-(3-hydroxycyclohexyl)-6-((5-methyl-3-(6-methylpyridin-3-yl)isoxazol-4-yl)methoxy)pyridazine-3-carboxamide] | 98 | 1.98 | 7.8 | – | – | –
Cc1ccc(-c2noc(C)c2COc2ccc(C(=O)N[C@@]3(C)CCOC3)nn2)cn1 (single isomer, unassigned) [Example 81] | 80 | 1.8 | 10.4 | – | – | –
Cc1ccc(-c2noc(C)c2COc2ccc(C(=O)NC3CCOCC3)nn2)nn1 [Example 193, 6-((5-methyl-3-(6-methylpyridazin-3-yl)isoxazol-4-yl)methoxy)-N-(tetrahydropyran-4-yl)pyridazine-3-carboxamide] | 64 | 1.64 | 1 | – | – | –
Cc1ccc(-c2noc(C)c2COc2cnc(C(=O)NC3CCC(F)(F)CC3)cn2)cn1 [Example 86, N-(4,4-difluorocyclohexyl)-5-((5-methyl-3-(6-methyl-3-pyridyl)isoxazol-4-yl)methoxy)pyrazine-2-carboxamide] | 120 | 2.2 | 17 | – | – | –
Cc1ccc(-c2noc(C)c2COc2ccc(C(=O)N[C@H]3C[C@H](OC(F)F)C3)nn2)cn1 [Example 174, trans-N-(3-(difluoromethoxy)cyclobutyl)-6-((5-methyl-3-(6-methylpyridin-3-yl)isoxazol-4-yl)methoxy)pyridazine-3-carboxamide] | 55 | 1.55 | 8.8 | – | – | –
CCC[C@@H](CO)NC(=O)c1ccc(OCc2c(-c3ccc(C)nn3)noc2C)nc1 [Example 109, N-((1S)-1-(hydroxymethyl)butyl)-6-((5-methyl-3-(6-methylpyridazin-3-yl)isoxazol-4-yl)methoxy)pyridine-3-carboxamide] | 42 | 1.42 | 0.8 | – | – | –
Cc1ccc(-c2noc(C)c2COc2ccc(C(=O)NC3CC4(C3)CC(F)(F)C4)nn2)cn1 [Example 167, N-(6,6-difluorospiro[3.3]heptan-2-yl)-6-((5-methyl-3-(6-methylpyridin-3-yl)isoxazol-4-yl)methoxy)pyridazine-3-carboxamide] | 64 | 1.64 | 19.1 | – | – | –
CO[C@H]1CC[C@H](NC(=O)c2ccc(OCc3c(-c4ccc(C)nc4)noc3C)nn2)CC1 [Example 154, trans-N-(4-methoxycyclohexyl)-6-((5-methyl-3-(6-methylpyridin-3-yl)isoxazol-4-yl)methoxy)pyridazine-3-carboxamide] | 97 | 1.97 | 10 | – | – | –
CO[C@H]1C[C@H](NC(=O)c2ccc(OCc3c(-c4ccc(C)nc4)noc3C)nn2)C1 [Example 163, trans-N-(3-methoxycyclobutyl)-6-((5-methyl-3-(6-methyl-3-pyridyl)isoxazol-4-yl)methoxy)pyridazine-3-carboxamide] | 98 | 1.98 | 8.6 | – | – | –
Cc1ccc(-c2noc(CF)c2COc2ccc(C(=O)NC3CCOCC3)nn2)nn1 [Example 192, 6-((5-(fluoromethyl)-3-(6-methylpyridazin-3-yl)isoxazol-4-yl)methoxy)-N-(tetrahydropyran-4-yl)pyridazine-3-carboxamide] | 56 | 1.56 | 3 | – | – | –
Cc1ccc(-c2noc(C)c2COc2ccc(C(N)=O)cn2)cn1 [Example 17, 6-((5-methyl-3-(6-methylpyridin-3-yl)isoxazol-4-yl)methoxy)nicotinamide] | 60 | 1.6 | 9.8 | – | – | –
Cc1ccc(-c2noc(C)c2COc2ccc(C(=O)NC3CCC(F)(F)CC3)nn2)cn1 [Example 43, N-(4,4-difluorocyclohexyl)-6-((5-methyl-3-(6-methylpyridin-3-yl)isoxazol-4-yl)methoxy)pyridazine-3-carboxamide] | 82 | 1.82 | 16.4 | – | – | –
Cc1onc(-c2ccc(Cl)cn2)c1COc1ccc(C(=O)NC2CCOCC2)cn1 [RO-301, reference compound] | – | – | – | −18% | 0.82 | 0.2
Cc1ccc(-c2noc(C)c2COc2nnc(C(N)=O)cc2C)cn1 [Example 70, 5-methyl-6-((5-methyl-3-(6-methylpyridin-3-yl)isoxazol-4-yl)methoxy)pyridazine-3-carboxamide] | 54 | 1.54 | 1.2 | – | – | –
Cc1ccc(-c2noc(C)c2COc2ccc(C(=O)NC3COC3)nn2)cn1 [Example 35, 6-((5-methyl-3-(6-methylpyridin-3-yl)isoxazol-4-yl)methoxy)-N-(oxetan-3-yl)pyridazine-3-carboxamide] | 82 | 1.82 | 4.4 | – | – | –
Cc1ccc(-c2noc(C)c2COc2cnc(C(=O)NC(C)(C)CO)cn2)cn1 [Example 73, N-(2-hydroxy-1,1-dimethyl-ethyl)-5-((5-methyl-3-(6-methyl-3-pyridyl)isoxazol-4-yl)methoxy)pyrazine-2-carboxamide] | 45 | 1.45 | 52.8 | – | – | –
Cc1ccc(-c2noc(C)c2COc2ccc(C(=O)NCC3CC3)nn2)cn1 [Example 31, N-(cyclopropylmethyl)-6-((5-methyl-3-(6-methylpyridin-3-yl)isoxazol-4-yl)methoxy)pyridazine-3-carboxamide] | 102 | 2.02 | 14.2 | – | – | –
Cc1ccc(-c2noc(C)c2COc2ccc(C(=O)NC3(C)CCOCC3)cn2)cn1 [Example 106, 6-((5-methyl-3-(6-methylpyridin-3-yl)isoxazol-4-yl)methoxy)-N-(4-methyltetrahydropyran-4-yl)nicotinamide] | 64 | 1.64 | 60.3 | – | – | –
